In patent US20030134851A1, “Methods and compositions for providing glutamine” (priority 2001, published 2003):
“Also recorded” adds a separate entry of the source.

Tested on: intestinal damage caused by protein-energy malnutrition
Assay: Intestinal damage caused by protein-energy malnutrition in pigs
Format: in vivo, pig
Details: for Ileal mucosa histology (electron transmission microscopy) / Jejunal mucosa histology (electron transmission microscopy): malnourished pigs fed ENSURE PLUS plus supplement; for Alkaline phosphatase (AP) activity in jejunum: versus caseinate supplement; for T helper (CD4+) subpopulation of intra-epithelial lymphocytes in jejunum: versus control group
Description: A study was conducted to evaluate the potential effects of N-acetyl-L-glutamine versus free glutamine on intestinal damage caused by protein-energy malnutrition in pigs. In this study, 5-week-old domestic pigs, were provided by a certified farm. The pigs were randomly assigned to one of two groups. In one group 3 pigs were freely fed with ENSURE PLUS® (Ross Products Division, Abbott Laboratories) for 30 days. In the second group, 9 pigs were also fed with ENSURE PLUS®, but at only 20% of the daily intake of the first group. This second group was divided into 3 subgroups with […] each to receive a daily supplement of either calcium caseinate, glutamine or N-acetyl-L-glutamine. Daily average energy and protein supplied to the control group ranged from 3300 kcal, 138 g protein at the beginning of the study to 4500 kcal, 187 g protein at the end of the study. In the second group, supplements of caseinate, glutamine and N-acetyl-L-glutamine provided an additional 1.32 grams nitrogen equivalents per day (basically, 6.89 grams L-glutamine, or 8.87 grams N-acetyl-L-glutamine or 8.42 grams caseinate protein are supplemented per day). After 30 days, all pigs were deprived of food for 16 hours. The animals were then weighed, sedated, anesthetized and sacrificed through terminal bleeding by jugular puncture.
The entire small intestine was quickly removed. The 60 cm segment of the small intestine from the ligament of Treitz was considered proximal jejunum. A 5 cm long segment from the ligament of Treitz was selected for histological analysis of jejunum. The 60 cm length closest to the ileo-cecal valve was considered the distal ileum. A 5 cm segment from the ileo-cecal valve was selected for histological analysis of the ileum. The intestine segments were rinsed thoroughly with ice-cold saline solution, opened length-wise and blotted dry. The mucosa was scraped off using a glass slide onto a cold Petri dish, weighed, immediately frozen under liquid nitrogen and stored at −80° C. until biochemical analysis.
Jejunal and ileal mucosa were homogenized in 10 mM phosphate buffer (pH 7.4) using a mechanical Potter homogenizer, for protein and DNA assays. For the determination of the enzymatic markers of injury, functionality and antioxidant defense system, the mucosal homogenates were centrifuged at 3000 g for 10 min. and the resulting supernatants were used for enzymatic assays. For the determination of total glutathione, the mucosa was homogenized in 5% trichloroacetic acid and centrifuged at 8000 g for 5 min.
Biochemical analysis and immunological analysis were performed on the specimens. Concentrations of intestinal mucosa protein and DNA were determined using the Bradford method (Analytical Biochemistry, Volume 72, pages 248-254, 1976) and the method of Labarca and Paigen (Analytical Biochemistry, Volume 102 (2), pages 344-352, 1980), respectively. The degree of intestinal damage caused by malnutrition was evaluated by measuring alkaline phosphatase activity using the method of Goldstein (R. Goldstein, T. Klein, S. Freier and J. Menczel. American Journal of Clinical Nutrition 24: 1224-1231, 1970).
Glutathione reductase activity was evaluated by the method of Carlberg and Mannervik (I. Carlberg and B. Mannervik, Methods in Enzymology, Volume 113, pp 484-490, 1985). Glutathione transferase activity was measured using the method of Habig, et al. (W. H. Habig, M. J. Pabst and W. B. Jakoby, Journal of Biological Chemistry. […]). Glutathione peroxidase activity was assayed by the method of Flohe and Gunzler (L. Flohe and W. A. Gunzler, Methods in Enzymology, Volume 105, pp 114-121, 1984), and the non-protein sulfhydryl content (reported as reduced glutathione equivalents) was determined by the method of Anderson (M. E. Anderson, Methods in Enzymology, 133: 548-554, 1985). […]

Compound | Ileal mucosa histology (electron transmission microscopy) (30 days) | Jejunal mucosa histology (electron transmission microscopy) (30 days) | Prevention of biochemical and immunological changes induced by malnutrition in the small intestine (malnourished pigs, 30 days) | Alkaline phosphatase (AP) activity in jejunum (malnourished pigs, 30 days) | Total number of peyer's patch lymphocytes in ileum (malnourished pigs, versus N-acetyl-glutamine-supplemented or control groups) | T helper (CD4+) subpopulation of intra-epithelial lymphocytes in jejunum (malnourished pigs) | Prevention of overt signs of inflammation in the epithelial lining of the gastrointestinal tract (electron transmission micrographs, malnourished pigs) | Glutathione transferase activity in small intestine (malnourished pigs, 30 days) | Number of CD1+ intra-epithelial lymphocytes in jejunum (malnourished pigs, 30 days) | Intestinal contents of protein (jejunum and ileum) and DNA (ileum) (malnourished pigs, 30 days, versus caseinate or glutamine supplement) | Amount of GSH in the intestinal mucosa (malnourished pigs, 30 days, versus caseinate or glutamine, did not reach significance) | Total number of peyer's patch lymphocytes in jejunum (malnourished pigs, versus caseinate- or glutamine-supplemented groups)
NC(=O)CC[C@H](N)C(=O)O [Glutamine, glutamine] | displayed loss of microvilli, wide intercellular spaces, and intense lymphocytes infiltration | displayed shortened microvilli, expanded intercellular spaces, and irregular lobulated nucleus | no clear effect | tended to have higher AP activity | significantly lower | significantly higher |  |  |  |  |  | 
CC(=O)N[C@@H](CCC(N)=O)C(=O)O [N-acetyl-L-glutamine] | less affected by protein-energy malnutrition | less affected by protein-energy malnutrition | performed better than the glutamine or caseinate supplemented groups; also recorded: positive effect | tended to have higher AP activity |  | significantly higher | more effective than glutamine | less affected by the malnutrition process | significantly higher than in the rest of the groups | tended to be higher | tended to be slightly higher | tendency of the total number of peyer's patch lymphocytes to be higher
